Source: the supplement of paper PMC10307832

Tests used:
Assay in all cases: relative viability (nuclei count vs DMSO), 5 days (fraction); higher = more cells survive
[1] = compound: CC(C)CCN1c2nc(Nc3cc(F)c(O)c(F)c3)ncc2N(C)C(=O)C1C [BI-D1870] + CC(=O)c1c(C)c2cnc(Nc3ccc(N4CCNCC4)cn3)nc2n(C2CCCC2)c1=O [Palbociclib] (partner 0.5 µM)
Method in brief: (§1)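 Lung cancer cell lines were seeded in 1536-well plates and dosed by pin tool the next day, with either a single drug or a fixed anchor-drug dose combined with five library-drug doses (not always all listed) spaced in √10 steps. Five days later, one step fixed the cells and stained their nuclei (final 0.05% Triton X-100, 1% formaldehyde, 1 ug/ml Hoechst), and nuclei were counted on 4× images. Relative viability is the nuclei count in treated wells divided by the count in vehicle wells, and each value is the median of duplicate plates.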

[2] = compound: O=c1ncccn1[C@@H]1O[C@H](CO)[C@@H](O)[C@H]1O [Zebularine] + O=C(c1cc(Cc2n[nH]c(=O)c3ccccc23)ccc1F)N1CCN(C(=O)C2CC2)CC1 [Olaparib] (partner 8 µM)
Method in brief: as §1

[3] = compound: O=c1ncccn1[C@@H]1O[C@H](CO)[C@@H](O)[C@H]1O [Zebularine] + CS(=O)(=O)N1CCN(Cc2cc3nc(-c4cccc5[nH]ncc45)nc(N4CCOCC4)c3s2)CC1 [Pictilisib] (partner 1 µM)
Method in brief: as §1

[4] = compound: O=c1ncccn1[C@@H]1O[C@H](CO)[C@@H](O)[C@H]1O [Zebularine] + CC(=O)c1c(C)c2cnc(Nc3ccc(N4CCNCC4)cn3)nc2n(C2CCCC2)c1=O [Palbociclib] (partner 0.5 µM)
Method in brief: as §1

| Cell Line | relative viability ([1]; first compound 0.04 µM) | relative viability ([1]; first compound 0.1265 µM) | relative viability ([1]; first compound 0.4 µM) | relative viability ([1]; first compound 1.265 µM) | relative viability ([1]; first compound 4 µM) | relative viability ([2]; first compound 1 µM) | relative viability ([2]; first compound 3.162 µM) | relative viability ([2]; first compound 10 µM) | relative viability ([2]; first compound 31.62 µM) | relative viability ([2]; first compound 100 µM) | relative viability ([3]; first compound 1 µM) | relative viability ([3]; first compound 3.162 µM) | relative viability ([3]; first compound 10 µM) | relative viability ([3]; first compound 31.62 µM) | relative viability ([3]; first compound 100 µM) | relative viability ([4]; first compound 1 µM) | relative viability ([4]; first compound 3.162 µM) | relative viability ([4]; first compound 10 µM) | relative viability ([4]; first compound 31.62 µM) | relative viability ([4]; first compound 100 µM) |
| --- | --- | --- | --- | --- | --- | --- | --- | --- | --- | --- | --- | --- | --- | --- | --- | --- | --- | --- | --- | --- |
| NCI-H1666 | 0.665 | 0.591 | 0.661 | 0.63 | 0.619 | 0.812 | 0.803 | 0.65 | 0.802 | 0.75 | 0.472 | 0.477 | 0.383 | 0.506 | 0.311 | 0.629 | 0.642 | 0.58 | 0.689 | 0.654 |
| NCI-H1734 | 0.334 | 0.302 | 0.337 | 0.345 | 0.309 | 0.581 | 0.523 | 0.334 | 0.303 | 0.239 | 0.505 | 0.385 | 0.341 | 0.333 | 0.303 | 0.408 | 0.334 | 0.322 | 0.3 | 0.239 |
| NCI-H1755 | 0.432 | 0.413 | 0.438 | 0.481 | 0.435 | 0.911 | 0.891 | 0.729 | 0.74 | 0.472 | 0.554 | 0.433 | 0.326 | 0.484 | 0.36 | 0.496 | 0.455 | 0.45 | 0.474 | 0.415 |
| NCI-H1792 | 0.635 | 0.613 | 0.679 | 0.719 | 0.479 | 0.228 | 0.131 | 0.204 | 0.171 | 0.182 | 0.288 | 0.267 | 0.343 | 0.184 | 0.158 | 0.639 | 0.732 | 0.282 | 0.401 | 0.423 |
| NCI-H1793 | 0.369 | 0.274 | 0.291 | 0.391 | 0.318 | 1.02 | 0.906 | 0.37 | 0.333 | 0.27 | 0.472 | 0.372 | 0.205 | 0.269 | 0.267 | 0.364 | 0.309 | 0.214 | 0.186 | 0.221 |
| NCI-H1915 | 0.577 | 0.504 | 0.469 | 0.451 | 0.376 | 0.266 | 0.262 | 0.243 | 0.253 | 0.197 | 1.07 | 0.887 | 0.774 | 1.02 | 0.907 | 0.523 | 0.525 | 0.485 | 0.541 | 0.352 |
| NCI-H1944 | 0.335 | 0.308 | 0.308 | 0.332 | 0.33 | 0.449 | 0.474 | 0.366 | 0.34 | 0.246 | 0.375 | 0.363 | 0.325 | 0.41 | 0.347 | 0.309 | 0.353 | 0.339 | 0.36 | 0.329 |
| NCI-H1975 | 0.785 | 0.521 | 0.552 | 0.623 | 0.456 | 0.84 | 0.574 | 0.277 | 0.257 | 0.251 | 0.305 | 0.313 | 0.291 | 0.253 | 0.175 | 0.818 | 0.596 | 0.291 | 0.317 | 0.259 |
| NCI-H1993 | 0.642 | 0.583 | 0.717 | 0.691 | 0.573 | 1.09 | 0.885 | 0.416 | 0.982 | 0.693 | 0.962 | 0.8 |  | 0.89 | 0.847 | 0.726 | 0.704 | 0.615 | 0.633 | 0.695 |
| NCI-H2009 | 0.22 | 0.169 | 0.229 | 0.179 | 0.148 | 0.624 | 0.648 | 0.461 | 0.438 | 0.263 | 0.838 | 0.782 | 0.614 | 0.68 | 0.37 | 0.249 | 0.229 | 0.234 | 0.198 | 0.197 |
| NCI-H2023 | 0.424 | 0.279 | 0.284 | 0.3 | 0.207 | 0.512 | 0.452 | 0.392 | 0.256 | 0.244 | 0.262 | 0.272 | 0.215 | 0.272 | 0.201 | 0.361 | 0.375 | 0.235 | 0.322 | 0.245 |
| NCI-H2085 | 0.453 | 0.475 | 0.474 | 0.456 | 0.355 | 0.782 | 0.709 | 0.568 | 0.482 | 0.399 | 0.435 | 0.411 | 0.444 | 0.461 | 0.343 | 0.451 | 0.47 | 0.509 | 0.552 | 0.394 |
| NCI-H2087 | 0.239 | 0.2 | 0.265 | 0.196 | 0.208 | 0.607 | 0.478 | 0.323 | 0.34 | 0.239 | 0.92 | 0.703 | 0.583 | 0.752 | 0.368 | 0.275 | 0.207 | 0.243 | 0.218 | 0.185 |
| NCI-H2126 | 0.369 | 0.4 | 0.38 | 0.33 | 0.357 | 1.08 | 0.855 | 0.778 | 0.664 | 0.43 | 0.544 | 0.434 | 0.535 | 0.495 | 0.43 | 0.363 | 0.342 | 0.386 | 0.377 | 0.318 |
| NCI-H2170 | 0.455 | 0.38 | 0.423 | 0.447 | 0.398 | 0.707 | 0.561 | 0.414 | 0.364 | 0.166 | 0.385 | 0.31 | 0.348 | 0.322 | 0.243 | 0.415 | 0.351 | 0.366 | 0.404 | 0.283 |
| NCI-H2228 | 0.97 | 0.771 | 0.688 | 0.713 | 0.627 | 0.737 | 0.503 |  | 0.283 | 0.236 | 0.563 | 0.416 | 0.228 | 0.329 | 0.251 | 0.861 | 0.637 |  | 0.552 | 0.216 |
